# Values joined by “and” are separate entries in the source; they are usually repeats but may differ in a detail not shown here. Equal entries are not always repeated.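 In this assay, cells in 96-well plates receive the compound at five concentrations for 48 hours. Endpoints are linearly interpolated between the surrounding concentrations. GI50 = concentration required for 50% inhibition of growth. At the TGI there is no net growth.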
# Key:
# Assay in all cases: NCI-60 cell line screen, 48 h
# 786-0 renal = system: 786-0 renal
# A498 renal = system: A498 renal
# A549 NSCLC = system: A549 NSCLC
# ACHN renal = system: ACHN renal
# CAKI-1 renal = system: CAKI-1 renal
# CCRF-CEM leukemia = system: CCRF-CEM leukemia
# COLO 205 colon = system: COLO 205 colon
# DLD-1 colon = system: DLD-1 colon
# DMS 114 small cell lung = system: DMS 114 small cell lung
# DMS 273 small cell lung = system: DMS 273 small cell lung
# EKVX NSCLC = system: EKVX NSCLC
# HCC-2998 colon = system: HCC-2998 colon
# HCT-116 colon = system: HCT-116 colon
# HCT-15 colon = system: HCT-15 colon
# HL-60(TB) leukemia = system: HL-60(TB) leukemia
# HOP-18 NSCLC = system: HOP-18 NSCLC
# HOP-62 NSCLC = system: HOP-62 NSCLC
# HOP-92 NSCLC = system: HOP-92 NSCLC
# HT29 colon = system: HT29 colon
# IGROV1 ovarian = system: IGROV1 ovarian
# K-562 leukemia = system: K-562 leukemia
# KM12 colon = system: KM12 colon
# KM20L2 colon = system: KM20L2 colon
# LOX IMVI melanoma = system: LOX IMVI melanoma
# LXFL 529 NSCLC = system: LXFL 529 NSCLC
# M14 melanoma = system: M14 melanoma
# M19-MEL melanoma = system: M19-MEL melanoma
# MALME-3M melanoma = system: MALME-3M melanoma
# MOLT-4 leukemia = system: MOLT-4 leukemia
# NCI-H226 lung = system: NCI-H226 lung
# NCI-H23 lung = system: NCI-H23 lung
# NCI-H460 lung = system: NCI-H460 lung
# NCI-H522 lung = system: NCI-H522 lung
# OVCAR-3 ovarian = system: OVCAR-3 ovarian
# OVCAR-4 ovarian = system: OVCAR-4 ovarian
# OVCAR-5 ovarian = system: OVCAR-5 ovarian
# OVCAR-8 ovarian = system: OVCAR-8 ovarian
# RPMI-8226 leukemia = system: RPMI-8226 leukemia
# RXF 393 renal = system: RXF 393 renal
# SF-268 CNS = system: SF-268 CNS
# SF-295 CNS = system: SF-295 CNS
# SF-539 CNS = system: SF-539 CNS
# SK-MEL-2 melanoma = system: SK-MEL-2 melanoma
# SK-MEL-28 melanoma = system: SK-MEL-28 melanoma
# SK-MEL-5 melanoma = system: SK-MEL-5 melanoma
# SK-OV-3 ovarian = system: SK-OV-3 ovarian
# SN12C renal = system: SN12C renal
# SNB-19 CNS = system: SNB-19 CNS
# SNB-75 CNS = system: SNB-75 CNS
# SNB-78 CNS = system: SNB-78 CNS
# SR leukemia = system: SR leukemia
# SW-620 colon = system: SW-620 colon
# TK-10 renal = system: TK-10 renal
# U251 CNS = system: U251 CNS
# UACC-257 melanoma = system: UACC-257 melanoma
# UACC-62 melanoma = system: UACC-62 melanoma
# UO-31 renal = system: UO-31 renal
# XF 498 CNS = system: XF 498 CNS
# DU-145 prostate = system: DU-145 prostate
# HS 578T breast = system: HS 578T breast
# MCF7 breast = system: MCF7 breast
# MDA-MB-231 breast = system: MDA-MB-231 breast
# MDA-MB-435 = system: MDA-MB-435
# MDA-N = system: MDA-N
# NCI/ADR-RES ovarian = system: NCI/ADR-RES ovarian
# PC-3 prostate = system: PC-3 prostate
# T-47D breast = system: T-47D breast
structure (smiles),measurement,setting,value
CCOC(=O)C(CNc1ccc(O)cc1)NC(=O)c1ccccc1 (configuration not stated),TGI,786-0 renal,> 100 µM
same,TGI,A498 renal,> 100 µM
same,TGI,A549 NSCLC,> 100 µM
same,TGI,ACHN renal,> 100 µM
same,TGI,CAKI-1 renal,> 100 µM
same,TGI,CCRF-CEM leukemia,> 100 µM
same,TGI,COLO 205 colon,> 100 µM
same,TGI,DLD-1 colon,> 100 µM
same,TGI,DMS 114 small cell lung,> 100 µM
same,TGI,DMS 273 small cell lung,> 100 µM
same,TGI,EKVX NSCLC,> 100 µM
same,TGI,HCC-2998 colon,> 100 µM
same,TGI,HCT-116 colon,> 100 µM
same,TGI,HCT-15 colon,> 100 µM
same,TGI,HL-60(TB) leukemia,73.3 µM
same,TGI,HOP-18 NSCLC,> 100 µM
same,TGI,HOP-62 NSCLC,> 100 µM
same,TGI,HOP-92 NSCLC,> 100 µM
same,TGI,HT29 colon,> 100 µM
same,TGI,IGROV1 ovarian,> 100 µM
same,TGI,K-562 leukemia,> 100 µM
same,TGI,KM12 colon,> 100 µM
same,TGI,KM20L2 colon,> 100 µM
same,TGI,LOX IMVI melanoma,> 100 µM
same,TGI,LXFL 529 NSCLC,> 100 µM
same,TGI,M14 melanoma,> 100 µM
same,TGI,M19-MEL melanoma,> 100 µM
same,TGI,MALME-3M melanoma,> 100 µM
same,TGI,MOLT-4 leukemia,> 100 µM
same,TGI,NCI-H226 lung,> 100 µM
same,TGI,NCI-H23 lung,> 100 µM
same,TGI,NCI-H460 lung,> 100 µM
same,TGI,NCI-H522 lung,> 100 µM
same,TGI,OVCAR-3 ovarian,> 100 µM
same,TGI,OVCAR-4 ovarian,> 100 µM
same,TGI,OVCAR-5 ovarian,> 100 µM
same,TGI,OVCAR-8 ovarian,> 100 µM
same,TGI,RPMI-8226 leukemia,> 100 µM
same,TGI,RXF 393 renal,> 100 µM
same,TGI,SF-268 CNS,> 100 µM
same,TGI,SF-295 CNS,> 100 µM
same,TGI,SF-539 CNS,> 100 µM
same,TGI,SK-MEL-2 melanoma,> 100 µM
same,TGI,SK-MEL-28 melanoma,> 100 µM
same,TGI,SK-MEL-5 melanoma,> 100 µM
same,TGI,SK-OV-3 ovarian,> 100 µM
same,TGI,SN12C renal,> 100 µM
same,TGI,SNB-19 CNS,> 100 µM
same,TGI,SNB-75 CNS,> 100 µM
same,TGI,SNB-78 CNS,> 100 µM
same,TGI,SR leukemia,> 100 µM
same,TGI,SW-620 colon,> 100 µM
same,TGI,TK-10 renal,> 100 µM
same,TGI,U251 CNS,> 100 µM
same,TGI,UACC-257 melanoma,> 100 µM
same,TGI,UACC-62 melanoma,> 95 µM
same,TGI,UO-31 renal,> 100 µM
same,TGI,XF 498 CNS,> 100 µM
COc1ccc2c(c[n+](C)c3c4cc5c(cc4ccc23)OCO5)c1OC,GI50,A498 renal,9.16 µM and 73.7 µM
same,TGI,A498 renal,21.9 µM and > 100 µM
same,TGI,CAKI-1 renal,3.63 µM
same,TGI,DLD-1 colon,3.08 µM
same,TGI,DMS 114 small cell lung,4.71 µM
same,TGI,DMS 273 small cell lung,3.72 µM
same,TGI,DU-145 prostate,> 100 µM
same,TGI,HCT-15 colon,17.5 µM and > 100 µM
same,TGI,HOP-18 NSCLC,4.04 µM
same,TGI,HS 578T breast,> 100 µM
same,GI50,HT29 colon,1.78 µM and 5.12 µM
same,GI50,K-562 leukemia,3.8 µM and 34.1 µM
same,TGI,K-562 leukemia,> 100 µM
same,GI50,KM12 colon,2.1 µM and 9 µM
same,TGI,KM20L2 colon,3.15 µM
same,TGI,LXFL 529 NSCLC,3.35 µM
same,TGI,M19-MEL melanoma,3.07 µM
same,TGI,MCF7 breast,79.6 µM
same,TGI,MDA-MB-231 breast,> 100 µM
same,TGI,MDA-MB-435,43.8 µM
same,TGI,MDA-N,44.5 µM
same,TGI,NCI-H522 lung,3.64 µM
same,TGI,NCI/ADR-RES ovarian,> 100 µM
same,GI50,OVCAR-5 ovarian,2.49 µM and 22.8 µM
same,TGI,PC-3 prostate,> 100 µM
same,TGI,RPMI-8226 leukemia,> 100 µM
same,TGI,RXF 393 renal,> 100 µM
same,TGI,SK-MEL-2 melanoma,3.54 µM
same,TGI,SNB-78 CNS,4.26 µM
same,TGI,T-47D breast,> 100 µM
CCOc1ccc(O)cc1[P+](c1ccccc1)(c1ccccc1)c1ccccc1,TGI,786-0 renal,20.2 µM
same,TGI,A498 renal,29.5 µM
same,TGI,A549 NSCLC,43.2 µM
same,TGI,ACHN renal,81.7 µM
same,TGI,CAKI-1 renal,23.4 µM
same,TGI,CCRF-CEM leukemia,11.2 µM
same,TGI,COLO 205 colon,10 µM
same,TGI,DLD-1 colon,17.6 µM
same,TGI,DMS 273 small cell lung,10.1 µM
same,TGI,EKVX NSCLC,24.2 µM
same,TGI,HCC-2998 colon,13.4 µM
same,TGI,HCT-116 colon,13.7 µM
same,TGI,HOP-18 NSCLC,9.61 µM
same,TGI,HOP-62 NSCLC,28.9 µM
same,TGI,HT29 colon,17.6 µM
same,TGI,K-562 leukemia,9.48 µM
same,TGI,KM12 colon,11.7 µM
same,TGI,KM20L2 colon,17.9 µM
same,TGI,LOX IMVI melanoma,13.6 µM
same,TGI,LXFL 529 NSCLC,12.1 µM
same,TGI,M14 melanoma,16.7 µM
same,TGI,M19-MEL melanoma,15.3 µM
same,TGI,MALME-3M melanoma,20.1 µM
same,TGI,NCI-H226 lung,14.5 µM
same,TGI,NCI-H23 lung,5.55 µM
same,TGI,NCI-H460 lung,14.5 µM
same,TGI,NCI-H522 lung,6.39 µM
same,TGI,OVCAR-3 ovarian,11.4 µM
same,TGI,OVCAR-4 ovarian,19.4 µM
same,TGI,OVCAR-5 ovarian,13.1 µM
same,TGI,OVCAR-8 ovarian,15.7 µM
same,TGI,RPMI-8226 leukemia,26.5 µM
same,TGI,RXF 393 renal,17.9 µM
same,TGI,SF-268 CNS,> 100 µM
same,TGI,SF-295 CNS,19.9 µM
same,TGI,SF-539 CNS,17.8 µM
same,TGI,SK-MEL-28 melanoma,22.6 µM
same,TGI,SK-MEL-5 melanoma,4.7 µM
same,TGI,SK-OV-3 ovarian,27.1 µM
same,TGI,SN12C renal,13.7 µM
same,TGI,SNB-19 CNS,24.5 µM
same,TGI,SNB-75 CNS,25.6 µM
same,TGI,SNB-78 CNS,84.8 µM
same,TGI,TK-10 renal,12.9 µM
same,TGI,U251 CNS,15 µM
same,TGI,UACC-257 melanoma,5.9 µM
same,TGI,UACC-62 melanoma,17.8 µM
same,TGI,UO-31 renal,52.5 µM
same,TGI,XF 498 CNS,4.52 µM
